For one data set, the target named is T1, HER2 INS YVMA (Homo sapiens, UniProt P04626, INS775YVMA).
T1 construct: purchased DPF
As to the kind of experiment: Lance Kinase Activity Assay, HER2 INS YVMA (Her2 Exon 20 INSYVMA Lance). It is filed as biochemical. The following applies: biochemical Lance assay. Put shortly:
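Kinase phosphorylates a ULight-labelled peptide substrate; Eu anti-phospho antibody gives TR-FRET (ex 340 nm, em 665/615 nm). Compounds in 1:3 serial dilution over 8 steps, reaction started with ATP, 1 h at room temperature, stopped with EDTA-containing detection mix for 1 h. IC50 from sigmoidal dose-response curves.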

For data set [1], the target named is Her2 Exon 20 INSYVMA Ba/F3 (Homo sapiens, UniProt P04626, DUP772-775, cells depend on it). Nature of the data set: Her2 Exon 20 INSYVMA Ba/F3 CellTiter-Glo. In kind it is cell-based. Particulars: CellTiter-Glo, 72 h, read-out: Her2 Exon 20 INSYVMA Ba/F3 CTG IC50. A digest of the protocol: (§1)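 Ba/F3 cells were seeded, left 24 h at 37 °C/5% CO2, then exposed to compound dilutions in DMSO for 72 h. Viability was read as ATP luminescence (CellTiter-Glo) and IC50 fitted from dose–response curves; DMSO and 10 μM staurosporine defined the controls, and plates needed Z′ ≥0.5.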

Data set [2] addresses EGFR Exon 20 INSNPH Ba/F3 (Homo sapiens, UniProt P00533, DUP771-773, cells depend on it). As to the kind of experiment: EGFR Exon 20 INSNPH Ba/F3 CellTiter-Glo. It is filed as cell-based. Particulars: CellTiter-Glo, 72 h, read-out: EGFR Exon 20 INSNPH Ba/F3 CTG IC50. Put shortly: as §1
A further data set deals with EGFR T790ML858R (Homo sapiens, UniProt P00533, L858R/T790M). As to the kind of experiment: EGFR T790ML858R Lance assay. In kind it is biochemical. As to the method:
(§2) Inhibition is indicated as […] [nM] (“−”=not measured). Compounds having an activity designated as “A” provided an IC50≤100 nM; compounds having an activity designated as “B” provided an 100 nM<IC50≤500 nM; compounds having an activity designated as “C” provided an 500 nM<IC50≤1000 nM; compounds having an activity designated as “D” provided an 1000 nM<IC50≤100000 nM; and compounds having an activity designated as “E” provided an IC50>10000 nM.

The next data set concerns the target EGFR wt (Homo sapiens, UniProt P00533). As to the kind of experiment: EGFR wt Lance assay. In kind it is biochemical. As to the method: as §2
Another data set deals with H1975. Nature of the data set: H1975 CellTiter-Glo. It is filed as cell-based. Particulars: Homo sapiens, NCI-H1975; 72 h compound incubation; read-out: H1975 CTG IC50. A digest of the protocol:
(§3)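 Cells seeded, after 24 h at 37° C/5% CO2 treated with compounds in DMSO at various concentrations for 72 h. Viability from ATP luminescence (CellTiter-Glo); DMSO and 10 μM Staurosporine as controls; IC50 from dose-response fit, plates accepted at Z′ ≥0.5.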

In another data set the test system is H1781. As to the kind of experiment: H1781 CellTiter-Glo. It is filed as cell-based. The following applies: NCI-H1781; 72 h compound incubation; read-out: H1781 CTG IC50. As to the method: 2. Measurement of Cellular Activity
The CellTiter-Glo Luminescent Cell Viability Assay (Promega) is a homogeneous method of determining the number of viable cells in culture. It is based on quantification of ATP, indicating the presence of metabolically active cells. Cells are seeded on day 1 at cell numbers that assure assay linearity and optimal signal intensity. After incubation for 24 h in humidified chambers at 37° C. and 5% CO2, compounds in DMSO are added at different concentrations. Cells are further incubated for 72 h at 37° C. and 5% CO2. Cells treated with the compound vehicle DMSO are used as positive controls and cells treated with 10 μM Staurosporine serve as negative controls. At day 5 the CellTiter Glo Reagent is prepared according to the instructions of the kit (Promega Inc.): Reagent is mixed 1:1 with cell culture medium. Thereon, mixture and assay plates are equilibrated at room temperature for 20 min. Equal volumes of the reagent-medium-mixture is added to the volume of culture medium present in each well. The plates are mixed at ˜200 rpm for 2 minutes on an orbital shaker. The microplates are then incubated at room temperature for 10 minutes for stabilization of the luminescent signal. Following incubation the luminescence is recorded on a Victor microplate reader (Perkin Elmer) using a 200 ms integration time. The data is then analyzed with Excel using the XLFIT Plugin (dose response Fit 205) for IC50-determination. As quality control the Z′-factor is calculated from 16 positive and negative control values. Only assay results showing a Z′-factor ≥0.5 are used for further analysis.
as §2

Another data set deals with A431. As to the kind of experiment: A431 CellTiter-Glo. It is filed as cell-based. Particulars: Homo sapiens, A-431; 72 h compound incubation; read-out: A431 CTG IC50. Put shortly:
as §3

The nature of data set [3]: Metabolic stability in mouse liver microsomes without cofactor NADPH. In kind it is in vitro ADME. The following applies: 3 μM test compound, mouse liver microsomes, without NADPH, 50 min, 37° C., LC-MS/MS. Put shortly: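 Test compound (3 μM) was incubated with mouse liver microsomes without NADPH at 37° C. Depletion was followed by LC-MS/MS over time up to 50 min.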

Bounds are passed on as bounds.

EGFR wt, sequence (P00533 25-1210): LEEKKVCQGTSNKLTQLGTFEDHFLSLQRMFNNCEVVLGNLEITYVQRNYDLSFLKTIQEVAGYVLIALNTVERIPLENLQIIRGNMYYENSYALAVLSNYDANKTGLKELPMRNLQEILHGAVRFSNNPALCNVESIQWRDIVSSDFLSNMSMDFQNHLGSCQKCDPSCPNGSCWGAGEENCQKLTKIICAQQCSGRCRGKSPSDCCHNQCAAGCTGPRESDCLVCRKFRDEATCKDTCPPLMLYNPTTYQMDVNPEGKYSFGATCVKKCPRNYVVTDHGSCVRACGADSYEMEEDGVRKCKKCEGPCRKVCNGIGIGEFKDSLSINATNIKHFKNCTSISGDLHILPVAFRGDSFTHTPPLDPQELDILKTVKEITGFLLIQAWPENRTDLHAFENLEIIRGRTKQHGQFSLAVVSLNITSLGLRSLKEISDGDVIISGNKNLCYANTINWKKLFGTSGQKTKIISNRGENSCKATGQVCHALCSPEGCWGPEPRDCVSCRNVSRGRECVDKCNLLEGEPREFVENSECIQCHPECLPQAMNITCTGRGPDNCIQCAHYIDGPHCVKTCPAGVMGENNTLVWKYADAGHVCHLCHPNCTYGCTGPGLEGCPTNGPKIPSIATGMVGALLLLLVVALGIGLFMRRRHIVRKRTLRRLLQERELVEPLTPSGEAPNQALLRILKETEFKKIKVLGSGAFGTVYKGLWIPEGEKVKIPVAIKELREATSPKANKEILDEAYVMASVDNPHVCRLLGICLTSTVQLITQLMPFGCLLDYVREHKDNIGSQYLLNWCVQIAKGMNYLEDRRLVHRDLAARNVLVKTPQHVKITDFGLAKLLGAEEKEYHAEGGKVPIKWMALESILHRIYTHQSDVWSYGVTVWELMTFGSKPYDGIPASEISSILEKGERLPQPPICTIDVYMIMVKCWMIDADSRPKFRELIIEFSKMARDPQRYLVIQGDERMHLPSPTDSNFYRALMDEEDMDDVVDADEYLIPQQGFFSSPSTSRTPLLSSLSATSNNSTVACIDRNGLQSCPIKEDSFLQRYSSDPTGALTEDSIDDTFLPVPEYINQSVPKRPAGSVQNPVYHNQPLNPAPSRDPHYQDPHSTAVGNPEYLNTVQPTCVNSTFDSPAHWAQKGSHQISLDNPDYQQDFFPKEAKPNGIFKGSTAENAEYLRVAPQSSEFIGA
T1 sequence (P04626 with tags, fused parts or gaps INS775YVMA): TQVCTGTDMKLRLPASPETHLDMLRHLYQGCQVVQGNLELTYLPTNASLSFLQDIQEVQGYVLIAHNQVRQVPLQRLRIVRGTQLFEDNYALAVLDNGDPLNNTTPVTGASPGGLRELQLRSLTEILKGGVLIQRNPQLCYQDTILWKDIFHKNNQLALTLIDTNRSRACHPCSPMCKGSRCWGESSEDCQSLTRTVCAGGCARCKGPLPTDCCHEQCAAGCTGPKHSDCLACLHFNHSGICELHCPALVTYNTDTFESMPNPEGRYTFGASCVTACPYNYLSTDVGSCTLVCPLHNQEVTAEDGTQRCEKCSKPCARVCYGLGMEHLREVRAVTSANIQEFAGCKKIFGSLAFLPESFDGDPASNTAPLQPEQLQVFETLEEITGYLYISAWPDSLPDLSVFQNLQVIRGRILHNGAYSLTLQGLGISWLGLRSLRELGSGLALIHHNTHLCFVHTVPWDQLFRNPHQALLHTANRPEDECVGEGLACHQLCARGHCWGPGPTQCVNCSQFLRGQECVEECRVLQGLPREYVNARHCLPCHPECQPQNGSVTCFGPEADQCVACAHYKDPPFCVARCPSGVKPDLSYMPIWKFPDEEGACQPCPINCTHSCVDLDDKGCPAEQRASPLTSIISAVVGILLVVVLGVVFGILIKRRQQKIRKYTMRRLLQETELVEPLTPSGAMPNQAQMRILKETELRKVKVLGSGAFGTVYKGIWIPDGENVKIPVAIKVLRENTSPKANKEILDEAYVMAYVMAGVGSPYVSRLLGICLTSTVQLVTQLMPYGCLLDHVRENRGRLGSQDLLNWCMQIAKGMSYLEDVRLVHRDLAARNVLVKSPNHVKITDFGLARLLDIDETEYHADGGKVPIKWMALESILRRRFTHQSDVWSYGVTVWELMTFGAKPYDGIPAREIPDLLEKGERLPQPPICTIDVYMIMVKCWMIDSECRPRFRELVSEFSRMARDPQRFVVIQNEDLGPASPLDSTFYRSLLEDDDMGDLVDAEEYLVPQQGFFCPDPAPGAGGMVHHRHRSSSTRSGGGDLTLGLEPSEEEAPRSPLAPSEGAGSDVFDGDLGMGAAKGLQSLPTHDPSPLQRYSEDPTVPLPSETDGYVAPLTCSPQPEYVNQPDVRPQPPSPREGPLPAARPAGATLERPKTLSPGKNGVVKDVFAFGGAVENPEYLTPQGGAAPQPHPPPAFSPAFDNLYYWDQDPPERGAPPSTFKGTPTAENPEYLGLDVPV
EGFR T790ML858R, sequence (P00533 25-1210 T790M/L858R): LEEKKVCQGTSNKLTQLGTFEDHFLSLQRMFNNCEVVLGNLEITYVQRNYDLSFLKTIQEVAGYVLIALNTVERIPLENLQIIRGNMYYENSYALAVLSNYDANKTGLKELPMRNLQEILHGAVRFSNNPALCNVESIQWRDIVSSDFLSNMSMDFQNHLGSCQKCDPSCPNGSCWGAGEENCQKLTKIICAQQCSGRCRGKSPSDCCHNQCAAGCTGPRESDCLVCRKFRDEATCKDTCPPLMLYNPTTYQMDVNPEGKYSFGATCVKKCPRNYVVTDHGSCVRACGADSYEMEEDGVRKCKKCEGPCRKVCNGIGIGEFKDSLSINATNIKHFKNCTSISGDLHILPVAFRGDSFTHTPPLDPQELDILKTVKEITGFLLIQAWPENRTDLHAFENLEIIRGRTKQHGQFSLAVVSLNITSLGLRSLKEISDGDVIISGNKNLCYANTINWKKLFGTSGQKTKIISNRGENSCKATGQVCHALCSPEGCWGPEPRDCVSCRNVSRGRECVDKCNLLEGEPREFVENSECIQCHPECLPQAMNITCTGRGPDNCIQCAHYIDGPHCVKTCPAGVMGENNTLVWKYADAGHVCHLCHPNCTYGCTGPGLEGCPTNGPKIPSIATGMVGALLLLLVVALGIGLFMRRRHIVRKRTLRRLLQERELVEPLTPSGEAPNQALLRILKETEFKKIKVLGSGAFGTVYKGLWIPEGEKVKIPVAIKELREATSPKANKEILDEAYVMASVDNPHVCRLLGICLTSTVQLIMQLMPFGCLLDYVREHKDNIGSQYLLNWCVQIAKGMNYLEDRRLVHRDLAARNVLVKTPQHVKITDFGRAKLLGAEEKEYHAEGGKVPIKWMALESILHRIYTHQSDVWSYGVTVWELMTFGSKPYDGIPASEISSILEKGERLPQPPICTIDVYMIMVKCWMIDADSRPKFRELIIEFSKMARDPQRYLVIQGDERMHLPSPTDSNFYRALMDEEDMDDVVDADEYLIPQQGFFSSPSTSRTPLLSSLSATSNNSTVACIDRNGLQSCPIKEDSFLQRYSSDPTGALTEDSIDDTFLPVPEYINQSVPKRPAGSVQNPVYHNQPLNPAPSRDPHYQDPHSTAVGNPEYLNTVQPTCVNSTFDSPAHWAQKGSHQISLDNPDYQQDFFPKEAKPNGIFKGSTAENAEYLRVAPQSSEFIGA
EGFR Exon 20 INSNPH Ba/F3, sequence (P00533 with tags, fused parts or gaps DUP771-773): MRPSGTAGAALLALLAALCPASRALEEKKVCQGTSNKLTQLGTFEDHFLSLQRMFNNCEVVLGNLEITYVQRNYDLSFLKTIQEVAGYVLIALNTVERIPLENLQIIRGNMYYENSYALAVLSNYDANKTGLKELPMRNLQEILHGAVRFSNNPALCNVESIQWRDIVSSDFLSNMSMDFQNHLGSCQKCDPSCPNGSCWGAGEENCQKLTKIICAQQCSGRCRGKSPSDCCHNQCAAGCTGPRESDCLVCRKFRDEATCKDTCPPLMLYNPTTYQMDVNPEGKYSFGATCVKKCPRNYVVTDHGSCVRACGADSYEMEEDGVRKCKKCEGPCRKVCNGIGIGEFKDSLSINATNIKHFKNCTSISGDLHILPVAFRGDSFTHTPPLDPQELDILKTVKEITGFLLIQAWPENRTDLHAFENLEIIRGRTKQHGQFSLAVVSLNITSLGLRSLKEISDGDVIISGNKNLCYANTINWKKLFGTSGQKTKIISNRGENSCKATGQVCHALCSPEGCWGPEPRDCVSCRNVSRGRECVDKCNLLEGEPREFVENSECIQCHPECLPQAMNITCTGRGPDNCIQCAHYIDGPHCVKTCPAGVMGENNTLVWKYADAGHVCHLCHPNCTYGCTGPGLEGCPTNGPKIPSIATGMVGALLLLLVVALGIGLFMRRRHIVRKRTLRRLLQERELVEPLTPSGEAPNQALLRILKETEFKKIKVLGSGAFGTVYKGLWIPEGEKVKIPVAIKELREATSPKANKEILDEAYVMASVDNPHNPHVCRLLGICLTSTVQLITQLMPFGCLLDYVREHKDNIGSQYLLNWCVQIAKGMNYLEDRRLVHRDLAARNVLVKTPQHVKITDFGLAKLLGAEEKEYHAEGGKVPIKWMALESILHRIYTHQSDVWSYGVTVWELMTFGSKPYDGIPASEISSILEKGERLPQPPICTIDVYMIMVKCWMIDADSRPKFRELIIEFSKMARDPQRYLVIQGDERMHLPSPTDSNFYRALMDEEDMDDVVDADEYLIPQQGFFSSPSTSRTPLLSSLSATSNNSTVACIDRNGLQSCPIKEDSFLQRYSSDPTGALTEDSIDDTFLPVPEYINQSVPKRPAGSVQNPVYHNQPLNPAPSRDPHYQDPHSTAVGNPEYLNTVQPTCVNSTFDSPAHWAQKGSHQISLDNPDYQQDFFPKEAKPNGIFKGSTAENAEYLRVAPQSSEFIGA

Turning to `C=CC(=O)Nc1cc(-c2c(-c3cccc(CN4CCN(C)CC4)c3)[nH]c3nccc(Cl)c23)ccc1C` [Example 16, N-(5-(4-chloro-2-(3-((4-methylpiperazin-1-yl)methyl)phenyl)-1H-pyrrolo[2,3-b]pyridin-3-yl)-2-methylphenyl)acrylamide], the half-inhibitory concentration (IC50) against HER2 INS YVMA is ≤ 100 nM; against EGFR T790ML858R, ≤ 100 nM; on EGFR wt, ≤ 100 nM; in the data set on H1975, ≤ 100 nM; in the data set with H1781, 500 to 1000 nM; in the data set with A431, 500 to 1000 nM. In addition, the GI50 in data set [1] and in data set [2] was 100 to 500 nM each time. The “Stability in presence of mouse liver microsomes without cofactor NADPH [% remaining after 50 min]” value in data set [3] was >99 % remaining after 50 min.

As to `C=CC(=O)N1CCc2ccc(-c3c(-c4ccc(C5CCN(C)CC5)cc4)[nH]c4nccc(Cl)c34)cc21` [Example 55, 1-(6-(4-Chloro-2-(4-(1-methylpiperidin-4-yl)phenyl)-1H-pyrrolo[2,3-b]pyridin-3-yl)indolin-1-yl)prop-2-en-1-one 2,2,2-trifluoroacetate], the half-inhibitory concentration (IC50) against HER2 INS YVMA is ≤ 100 nM; at EGFR T790ML858R, ≤ 100 nM; at EGFR wt it was ≤ 100 nM; in the data set with H1975 it was ≤ 100 nM; with H1781, 1000 to 100000 nM; in the data set with A431, 1000 to 100000 nM. The GI50 in [1] and in [2] was 500 to 1000 nM throughout. The “Stability in presence of mouse liver microsomes without cofactor NADPH [% remaining after 50 min]” value in [3] is listed as >99 % remaining after 50 min.

For `C=CC(=O)Nc1cc(-c2c(-c3ccc(N4CCN(S(=O)(=O)CC)CC4)cc3)[nH]c3nccc(Cl)c23)ccc1C` [Example 15, N-(5-(4-chloro-2-(4-(4-(ethylsulfonyl)piperazin-1-yl)phenyl)-1H-pyrrolo[2,3-b]pyridin-3-yl)-2-methylphenyl)acrylamide], the 50% inhibitory concentration (IC50) is 100 to 500 nM on HER2 INS YVMA; ≤ 100 nM on EGFR T790ML858R; ≤ 100 nM at EGFR wt; ≤ 100 nM in the data set with H1975; 500 to 1000 nM with H1781; 100 to 500 nM with A431. For the same compound, the GI50 in data set [1] and in [2] was 100 to 500 nM throughout. The “Stability in presence of mouse liver microsomes without cofactor NADPH [% remaining after 50 min]” value in [3] is on record as >99 % remaining after 50 min.

In the case of `C=CC(=O)Nc1cc(-c2c(-c3cccc(C(=O)NC4CCN(Cc5ccccc5)CC4)c3)[nH]c3nccc(Cl)c23)ccc1C` [Example 48, 3-(3-(3-acrylamido-4-methylphenyl)-4-chloro-1H-pyrrolo[2,3-b]pyridin-2-yl)-N-(1-benzylpiperidin-4-yl)benzamide], the concentration for half-maximal inhibition (IC50) on HER2 INS YVMA is ≤ 100 nM; on EGFR T790ML858R it was ≤ 100 nM; on EGFR wt, ≤ 100 nM; in the data set on H1975, ≤ 100 nM; with H1781, 100 to 500 nM; in the data set with A431, 100 to 500 nM. The GI50 in data set [1] and in [2] was 100 to 500 nM in each case.

Turning to `C=CC(=O)N1CCc2ccc(-c3c(-c4ccc(N5CCN(C(C)C)CC5)cc4)[nH]c4nccc(Cl)c34)cc21` [Example 62, 1-(6-(4-chloro-2-(4-(4-isopropylpiperazin-1-yl)phenyl)-1H-pyrrolo[2,3-b]pyridin-3-yl)indolin-1-yl)prop-2-en-1-one], the 50% inhibitory concentration (IC50) is ≤ 100 nM against HER2 INS YVMA; ≤ 100 nM on EGFR T790ML858R; ≤ 100 nM on EGFR wt; ≤ 100 nM in the data set on H1975; 500 to 1000 nM in the data set with A431. In addition, the GI50 in data set [1] and in [2] was 100 to 500 nM each time. Besides, in [3], the “Stability in presence of mouse liver microsomes without cofactor NADPH [% remaining after 50 min]” value is >99 % remaining after 50 min.

Consider `C=CC(=O)Nc1cc(-c2c(-c3cccc(OCCN4CCCC4)c3)[nH]c3ncc(C(=O)OC(C)C)cc23)ccc1C` [Example 170, isopropyl 3-(3-acrylamido-4-methylphenyl)-2-(3-(2-(pyrrolidin-1-yl)ethoxy)phenyl)-1H-pyrrolo[2,3-b]pyridine-5-carboxylate], for which the IC50 against HER2 INS YVMA is ≤ 100 nM; against EGFR T790ML858R, ≤ 100 nM; on EGFR wt, ≤ 100 nM; in the data set on H1975 it was 100 to 500 nM; in the data set on A431, 1000 to 100000 nM. The GI50 in data set [1] and in data set [2] was 100 to 500 nM in each case. In addition, the “Stability in presence of mouse liver microsomes without cofactor NADPH [% remaining after 50 min]” value in data set [3] was >99 % remaining after 50 min.

For `C=CC(=O)Nc1cc(-c2c(-c3ccc(OCCN4CCCC4)cc3)[nH]c3nccc(Cl)c23)ccc1C` [Example 38, N-(5-(4-chloro-2-(4-(2-(pyrrolidin-1-yl)ethoxy)phenyl)-1H-pyrrolo[2,3-b]pyridin-3-yl)-2-methylphenyl)acrylamide], the IC50 against HER2 INS YVMA is ≤ 100 nM; against EGFR T790ML858R, ≤ 100 nM; against EGFR wt, ≤ 100 nM; in the data set with H1975 it was ≤ 100 nM; with A431 it was 100 to 500 nM. Besides, the GI50 in data set [1] and in [2] was ≤ 100 nM throughout. Moreover, the “Stability in presence of mouse liver microsomes without cofactor NADPH [% remaining after 50 min]” value in data set [3] is on record as >99 % remaining after 50 min.

For `C=CC(=O)Nc1cc(-c2c(-c3ccc(N4CCN(C)CC4)c(F)c3)[nH]c3ncc(C(=O)OC(C)C)cc23)ccc1C` [Example 164, isopropyl 3-(3-acrylamido-4-methylphenyl)-2-(3-fluoro-4-(4-methylpiperazin-1-yl)phenyl)-1H-pyrrolo[2,3-b]pyridine-5-carboxylate], the IC50 against HER2 INS YVMA was ≤ 100 nM; against EGFR T790ML858R, ≤ 100 nM; against EGFR wt, ≤ 100 nM; with H1975, 100 to 500 nM; in the data set on A431, 1000 to 100000 nM. Moreover, the GI50 in [1] and in [2] was 100 to 500 nM in each case. Also, in [3], the “Stability in presence of mouse liver microsomes without cofactor NADPH [% remaining after 50 min]” value is recorded as >99 % remaining after 50 min.

For `C=CC(=O)N1CCCc2ccc(-c3c(-c4cccc(OCCN(C)C)c4)[nH]c4nccc(Cl)c34)cc21` [Example 88, 1-(7-(4-chloro-2-(3-(2-(dimethylamino)ethoxy)phenyl)-1H-pyrrolo[2,3-b]pyridin-3-yl)-3,4-dihydroquinolin-1(2H)-yl)prop-2-en-1-one], the IC50 at HER2 INS YVMA was ≤ 100 nM; at EGFR T790ML858R, ≤ 100 nM; against EGFR wt, ≤ 100 nM; with H1975, 100 to 500 nM; with A431, 1000 to 100000 nM. Moreover, the GI50 in [1] and in [2] was 1000 to 10000 nM in each case. For the same compound, the “Stability in presence of mouse liver microsomes without cofactor NADPH [% remaining after 50 min]” value in [3] is listed as >99 % remaining after 50 min.

In the case of `C=CC(=O)Nc1cc(-c2c(-c3ccc(N4CCN(CC)CC4)cc3)[nH]c3nccc(Cl)c23)ccc1C` [Example 40, N-(5-(4-chloro-2-(4-(4-ethylpiperazin-1-yl)phenyl)-1H-pyrrolo[2,3-b]pyridin-3-yl)-2-methylphenyl)acrylamide], the half-inhibitory concentration (IC50) against HER2 INS YVMA was ≤ 100 nM; on EGFR T790ML858R, ≤ 100 nM; on EGFR wt, ≤ 100 nM; in the data set on H1975, ≤ 100 nM; in the data set with A431 it was 100 to 500 nM. Also, the GI50 in data set [1] and in [2] was ≤ 100 nM throughout. Besides, in [3], the “Stability in presence of mouse liver microsomes without cofactor NADPH [% remaining after 50 min]” value was >99 % remaining after 50 min.
